The source made the active and inactive calls. The calls are words filed in the database; no cut-off is given here.
Assays:
[1] = target: D(2) dopamine receptor (Rattus norvegicus, UniProt P61169)
[2] = target: D(1A) dopamine receptor (Rattus norvegicus, UniProt P18901)
[3] = organism: Rattus norvegicus; assay: Effect on cAMP synthesis in rat striatal membranes as increase above basal value at a concentration of 10 uM; format: functional; settings: Striatum, Membrane
[4] = organism: Rattus norvegicus; assay: Effect on cAMP synthesis in rat striatal membranes as increase above basal value at a concentration of 10 uM; NS= no synthesis detected; format: functional; settings: Striatum, Membrane
[5] = target: D(1A) dopamine receptor (Homo sapiens, UniProt P21728); assay: Affinity towards Dopamine receptor D1
Sequence of D(1A) dopamine receptor (Homo sapiens, UniProt P21728) (P21728 whole entry): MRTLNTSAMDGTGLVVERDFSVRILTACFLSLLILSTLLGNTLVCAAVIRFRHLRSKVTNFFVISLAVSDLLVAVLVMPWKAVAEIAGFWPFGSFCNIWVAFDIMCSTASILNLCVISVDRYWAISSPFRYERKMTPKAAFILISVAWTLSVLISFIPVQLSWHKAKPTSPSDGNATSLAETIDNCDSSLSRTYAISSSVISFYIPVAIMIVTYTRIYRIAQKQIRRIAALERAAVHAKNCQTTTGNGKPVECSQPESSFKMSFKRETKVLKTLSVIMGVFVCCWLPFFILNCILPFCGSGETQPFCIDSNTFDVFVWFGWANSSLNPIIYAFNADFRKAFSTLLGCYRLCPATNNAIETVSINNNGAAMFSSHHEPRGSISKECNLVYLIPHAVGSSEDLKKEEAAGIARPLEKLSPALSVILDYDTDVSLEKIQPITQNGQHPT

[6] = target: D(2) dopamine receptor (Homo sapiens, UniProt P14416); assay: In vitro receptor binding affinity against Dopamine receptor D2
Sequence of D(2) dopamine receptor (Homo sapiens, UniProt P14416) (P14416 whole entry): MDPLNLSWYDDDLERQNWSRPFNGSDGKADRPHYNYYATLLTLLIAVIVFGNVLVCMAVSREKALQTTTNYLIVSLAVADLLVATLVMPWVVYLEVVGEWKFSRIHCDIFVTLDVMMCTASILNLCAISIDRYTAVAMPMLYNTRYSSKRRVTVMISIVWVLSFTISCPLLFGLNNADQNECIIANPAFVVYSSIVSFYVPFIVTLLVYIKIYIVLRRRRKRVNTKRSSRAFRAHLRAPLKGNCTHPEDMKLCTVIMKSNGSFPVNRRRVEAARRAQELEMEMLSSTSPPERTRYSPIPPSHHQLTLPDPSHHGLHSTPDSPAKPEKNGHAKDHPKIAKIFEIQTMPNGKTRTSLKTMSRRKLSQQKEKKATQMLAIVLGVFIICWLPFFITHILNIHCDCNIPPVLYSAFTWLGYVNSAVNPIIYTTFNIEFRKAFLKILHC

[7] = organism: Rattus norvegicus; assay: Effect on cAMP synthesis in rat striatal membranes as increase above basal value at a concentration of 10 uM in the presence of 1 uM of SCH 23390.; format: functional; settings: Striatum, Membrane

Sequence of D(2) dopamine receptor (Rattus norvegicus, UniProt P61169) (P61169 whole entry): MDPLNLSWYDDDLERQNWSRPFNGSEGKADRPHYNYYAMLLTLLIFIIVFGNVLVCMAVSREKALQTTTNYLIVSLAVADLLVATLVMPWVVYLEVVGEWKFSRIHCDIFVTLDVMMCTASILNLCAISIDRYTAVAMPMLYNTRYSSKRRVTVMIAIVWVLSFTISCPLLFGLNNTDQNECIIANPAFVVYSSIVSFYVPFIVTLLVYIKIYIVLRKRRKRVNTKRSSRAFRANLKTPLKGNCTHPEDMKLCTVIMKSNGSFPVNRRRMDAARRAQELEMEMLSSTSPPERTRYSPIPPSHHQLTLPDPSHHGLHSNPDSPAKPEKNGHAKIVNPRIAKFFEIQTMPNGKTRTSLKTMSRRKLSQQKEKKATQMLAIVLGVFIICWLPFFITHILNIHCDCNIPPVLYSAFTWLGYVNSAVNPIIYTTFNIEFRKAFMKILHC
Sequence of D(1A) dopamine receptor (Rattus norvegicus, UniProt P18901) (P18901 whole entry): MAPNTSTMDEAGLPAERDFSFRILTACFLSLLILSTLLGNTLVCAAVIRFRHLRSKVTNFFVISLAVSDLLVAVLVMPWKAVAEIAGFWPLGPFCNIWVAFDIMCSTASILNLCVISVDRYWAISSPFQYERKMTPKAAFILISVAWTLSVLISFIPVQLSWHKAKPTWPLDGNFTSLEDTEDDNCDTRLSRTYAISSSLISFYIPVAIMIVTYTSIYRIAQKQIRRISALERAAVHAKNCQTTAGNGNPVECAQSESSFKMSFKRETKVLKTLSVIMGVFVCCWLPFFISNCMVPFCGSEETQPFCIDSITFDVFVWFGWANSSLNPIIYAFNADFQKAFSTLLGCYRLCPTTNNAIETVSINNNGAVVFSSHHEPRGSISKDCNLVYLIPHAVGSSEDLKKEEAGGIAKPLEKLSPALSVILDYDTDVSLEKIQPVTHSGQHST

Structure (SMILES): CCCN1Cc2ccccc2[C@@H]2c3cc(O)ccc3CC[C@H]21
- IC50 [1]: 210 nM
- IC50 [2]: 529 nM

Structure (SMILES): Oc1cccc2c1CC[C@H]1NCc3ccccc3[C@H]21
- IC50 [1]: 532 nM
- IC50 [2]: 5550 nM

Structure (SMILES): CN1Cc2ccccc2[C@@H]2c3cc(O)ccc3CC[C@H]21
- Increase [3]: 8%
- IC50 [1]: 359 nM
- IC50 [2]: 115 nM

Structure (SMILES): CN1Cc2ccccc2[C@@H]2c3ccc(O)c(O)c3CC[C@H]21
- Increase [4]: inactive
- IC50 [1]: 121 nM
- IC50 [2]: 955 nM

Structure (SMILES): Oc1ccc2c(c1)[C@H]1c3ccccc3CN[C@@H]1CC2
- Increase [3]: 15%
- IC50 [1]: 631 nM
- IC50 [2]: 102 nM

Structure (SMILES): NCCc1ccc(O)c(O)c1
- Increase [3]: 100%

Structure (SMILES): Oc1cccc2c1CC[C@H]1NCc3ccccc3[C@@H]21
- Increase [4]: inactive
- IC50 [1]: 2000 nM
- IC50 [2]: 2900 nM

Structure (SMILES): NC1CCc2cc(O)c(O)cc2[C@H]1c1ccccc1 (some centres not stated)
- IC50 [5]: > 1000 nM
- IC50 [6]: > 1000 nM

Structure (SMILES): Oc1cc2c(cc1O)[C@H]1c3ccccc3CN[C@@H]1CC2
- Increase [7]: 1%
- Increase [3]: 103%

Structure (SMILES): Oc1ccc2c(c1)[C@@H]1c3ccccc3CN[C@@H]1CC2
- Increase [4]: inactive
- IC50 [1]: 15500 nM
- IC50 [2]: 16700 nM

Structure (SMILES): CN1Cc2ccccc2[C@@H]2c3cc(O)c(Br)cc3CC[C@H]21
- Increase [4]: inactive
- IC50 [1]: 3000 nM
- IC50 [2]: 322 nM

Reference: ChEMBL document CHEMBL1128439, “Evaluation of cis- and trans-9- and 11-hydroxy-5,6,6a,7,8,12b-hexahydrobenzo[a]phenanthridines as structurally rigid, selective D1 dopamine receptor ligands” (J Med Chem, 1995)
